Reference: US20120270237A9, “METHODS FOR THE IDENTIFICATION OF KINASE INTERACTING MOLECULES AND FOR THE PURIFICATION OF KINASE PROTEINS” (Cellzone AG, priority 2009, published 2012)

Columns and labels:
Assay in all cases: Kinobeads competition binding, HL60 cell lysate
Conditions in all cases: 10 μM free compound
[1] = molecular target: T1, MAP3K2 (Homo sapiens, UniProt Q9Y2U5); design: endogenous in cells; host or cells: HL60 cell lysate
T1 sequence (Q9Y2U5 1-619): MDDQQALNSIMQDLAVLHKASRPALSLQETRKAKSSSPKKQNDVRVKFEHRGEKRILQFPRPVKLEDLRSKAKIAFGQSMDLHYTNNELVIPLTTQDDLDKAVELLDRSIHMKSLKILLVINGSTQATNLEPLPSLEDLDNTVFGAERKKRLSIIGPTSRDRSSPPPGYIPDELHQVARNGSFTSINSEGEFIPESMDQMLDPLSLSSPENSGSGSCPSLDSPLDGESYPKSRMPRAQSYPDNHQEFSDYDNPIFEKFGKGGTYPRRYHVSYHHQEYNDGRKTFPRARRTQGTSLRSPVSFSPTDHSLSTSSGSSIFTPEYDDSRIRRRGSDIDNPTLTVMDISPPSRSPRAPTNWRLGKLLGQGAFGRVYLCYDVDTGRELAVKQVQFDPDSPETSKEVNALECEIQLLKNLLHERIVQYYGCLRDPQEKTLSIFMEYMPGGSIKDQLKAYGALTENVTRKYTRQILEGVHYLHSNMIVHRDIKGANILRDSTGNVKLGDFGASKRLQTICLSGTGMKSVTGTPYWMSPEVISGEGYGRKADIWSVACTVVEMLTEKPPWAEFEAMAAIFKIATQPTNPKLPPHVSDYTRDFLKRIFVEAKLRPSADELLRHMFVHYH
Procedure: To one aliquot of cell lysate 10 μM of the free compound (FIG. 3, CZC31326) was added and allowed to bind to proteins in the lysate. Then the affinity matrix with the immobilized compound (Example 1) was added to capture proteins that were not interacting with the previously added free compound. Beads were separated from the lysate and bead bound proteins were eluted in SDS sample buffer and subsequently separated by SDS-Polyacrylamide gel electrophoresis (FIG. 4). Suitable gel bands were cut out and subjected to in-gel proteolytic digestion with trypsin. The second lysate aliquot was processed identically, however no free compound was added (DMSO solvent control). Peptides originating from samples 1 and 2 were labeled with iTRAQ reagents (iTRAQ 114 and iTRAQ 117) and the combined samples were analyzed with a nano-flow liquid chromatography system coupled online to a tandem mass spectrometer (LC-MS/MS) experiment followed by iTRAQ reporter ion quantification in the MS/MS spectra (Ross et al., 2004. Mol. Cell. Proteomics 3(12):1154-1169). Further experimental protocols can be found in WO2006/134056 and a previous publication (Bantscheff et al., 2007. Nature Biotechnology 25, 1035-1044). Sepharose-beads with the immobilized compound (100 μl beads per pull-down experiment) were equilibrated in lysis buffer and incubated with a cell lysate sample containing 50 mg of protein on an end-over-end shaker (Roto Shake Genie, Scientific Industries Inc.) for 2 hours at 4° C. […] The iTRAQ reagents are a set of multiplexed, amine-specific, stable isotope reagents that can label peptides on amino groups in up to four different biological samples enabling simultaneous identification and quantitation of peptides. […] Relative protein quantitation was performed using peak areas of iTRAQ reporter ion signals essentially as described in an earlier publication (Bantscheff et al., 2007. Nature Biotechnology 25, 1035-1044).

[2] = molecular target: MAP2K3 (Homo sapiens, UniProt P46734); design: Identified kinases with CZC31326 from HL60 lysate; endogenous in cells; host or cells: HL60
Chain of MAP2K3 (P46734 whole entry): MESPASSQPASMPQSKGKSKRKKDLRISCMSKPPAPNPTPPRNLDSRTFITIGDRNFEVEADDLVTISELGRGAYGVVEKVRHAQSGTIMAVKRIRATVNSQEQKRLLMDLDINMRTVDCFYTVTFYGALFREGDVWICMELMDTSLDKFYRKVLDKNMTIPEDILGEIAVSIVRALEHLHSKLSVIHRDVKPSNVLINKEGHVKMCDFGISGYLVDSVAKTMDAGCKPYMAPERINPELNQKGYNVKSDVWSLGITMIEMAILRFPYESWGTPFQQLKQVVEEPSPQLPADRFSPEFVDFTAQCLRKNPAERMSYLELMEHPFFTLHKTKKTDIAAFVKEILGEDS
Procedure: (§1) To one aliquot of cell lysate 10 μM of the free compound (FIG. 3, CZC31326) was added and allowed to bind to proteins in the lysate. Then the affinity matrix with the immobilized compound (Example 1) was added to capture proteins that were not interacting with the previously added free compound. Beads were separated from the lysate and bead bound proteins were eluted in SDS sample buffer and subsequently separated by SDS-Polyacrylamide gel electrophoresis (FIG. 4). Suitable gel bands were cut out and subjected to in-gel proteolytic digestion with trypsin. The second lysate aliquot was processed identically, however no free compound was added (DMSO solvent control). Peptides originating from samples 1 and 2 were labeled with iTRAQ reagents (iTRAQ 114 and iTRAQ 117) and the combined samples were analyzed with a nano-flow liquid chromatography system coupled online to a tandem mass spectrometer (LC-MS/MS) experiment followed by iTRAQ reporter ion quantification in the MS/MS spectra (Ross et al., 2004. Mol. Cell. Proteomics 3(12):1154-1169). Further experimental protocols can be found in WO2006/134056 and a previous publication (Bantscheff et al., 2007. Nature Biotechnology 25, 1035-1044). Sepharose-beads with the immobilized compound (100 μl beads per pull-down experiment) were equilibrated in lysis buffer and incubated with a cell lysate sample containing 50 mg of protein on an end-over-end shaker (Roto Shake Genie, Scientific Industries Inc.) for 2 hours at 4° C. Beads were collected, transferred to Mobicol-columns (MoBiTech 10055) and washed with 10 ml lysis buffer containing 0.4% NP40 detergent, followed by 5 ml lysis buffer containing 0.2% detergent. To elute bound proteins, 60 μl 2×SDS sample buffer was added to the column. The column was incubated for 30 minutes at 50° C. and the eluate was transferred to a siliconized microfuge tube by centrifugation. Proteins were then alkylated with 108 mM iodoacetamid. Proteins were then separated by SDS-Polyacrylamide electrophoresis (SDS-PAGE). The peptide extracts of samples treated with 10 μM of free compound (CZC31326) and the solvent control (0.5% DMSO) were treated with different variants of the isobaric tagging reagent (iTRAQ Reagents Multiplex Kit, part number 4352135, Applied Biosystems, Foster City, Calif., USA). The iTRAQ reagents are a set of multiplexed, amine-specific, stable isotope reagents that can label peptides on amino groups in up to four different biological samples enabling simultaneous identification and quantitation of peptides. […] Relative protein quantitation was performed using peak areas of iTRAQ reporter ion signals essentially as described in an earlier publication (Bantscheff et al., 2007. Nature Biotechnology 25, 1035-1044).

[3] = molecular target: MAP2K1 (Homo sapiens, UniProt Q02750); design: Identified kinases with CZC31326 from HL60 lysate; endogenous in cells; host or cells: HL60
Chain of MAP2K1 (Q02750 whole entry): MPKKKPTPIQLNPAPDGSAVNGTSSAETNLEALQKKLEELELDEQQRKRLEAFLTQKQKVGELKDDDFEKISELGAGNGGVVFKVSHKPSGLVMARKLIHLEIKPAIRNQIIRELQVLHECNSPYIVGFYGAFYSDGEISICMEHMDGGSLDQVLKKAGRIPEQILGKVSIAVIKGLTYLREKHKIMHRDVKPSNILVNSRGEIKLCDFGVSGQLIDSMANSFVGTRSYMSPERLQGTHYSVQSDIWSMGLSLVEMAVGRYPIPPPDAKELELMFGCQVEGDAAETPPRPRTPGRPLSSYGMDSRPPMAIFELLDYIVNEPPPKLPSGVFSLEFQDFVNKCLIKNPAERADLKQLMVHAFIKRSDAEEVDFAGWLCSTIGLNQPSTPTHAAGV
Procedure: as §1

[4] = molecular target: LOK (Homo sapiens, UniProt O94804); design: Identified kinases with CZC31326 from HL60 lysate; endogenous in cells; host or cells: HL60
Chain of LOK (O94804 whole entry): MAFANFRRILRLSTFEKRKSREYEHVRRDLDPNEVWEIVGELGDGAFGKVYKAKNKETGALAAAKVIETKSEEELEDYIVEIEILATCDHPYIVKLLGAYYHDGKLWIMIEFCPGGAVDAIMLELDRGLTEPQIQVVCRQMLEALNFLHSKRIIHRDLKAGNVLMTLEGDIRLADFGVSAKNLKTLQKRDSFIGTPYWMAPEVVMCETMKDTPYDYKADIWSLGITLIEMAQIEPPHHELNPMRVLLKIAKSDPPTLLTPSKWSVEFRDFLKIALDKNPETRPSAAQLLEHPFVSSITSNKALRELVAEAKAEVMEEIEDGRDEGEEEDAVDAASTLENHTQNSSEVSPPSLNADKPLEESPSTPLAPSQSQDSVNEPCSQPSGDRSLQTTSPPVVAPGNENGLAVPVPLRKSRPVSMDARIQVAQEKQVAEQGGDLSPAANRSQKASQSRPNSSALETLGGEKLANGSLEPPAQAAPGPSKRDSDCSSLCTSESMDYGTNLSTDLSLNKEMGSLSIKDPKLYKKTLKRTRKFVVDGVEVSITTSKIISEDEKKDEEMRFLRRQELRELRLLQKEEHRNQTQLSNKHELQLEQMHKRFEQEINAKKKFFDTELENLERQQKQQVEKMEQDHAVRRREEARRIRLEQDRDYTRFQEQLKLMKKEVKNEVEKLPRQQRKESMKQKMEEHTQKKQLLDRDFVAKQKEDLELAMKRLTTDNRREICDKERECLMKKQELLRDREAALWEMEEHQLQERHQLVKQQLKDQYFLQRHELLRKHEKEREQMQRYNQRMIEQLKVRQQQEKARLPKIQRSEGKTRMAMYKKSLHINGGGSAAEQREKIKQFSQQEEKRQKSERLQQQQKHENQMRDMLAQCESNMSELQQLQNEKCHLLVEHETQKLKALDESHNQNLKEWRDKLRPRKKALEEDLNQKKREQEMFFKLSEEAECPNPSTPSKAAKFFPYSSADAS
Procedure: as §1

[5] = molecular target: LRRK2 (Homo sapiens, UniProt Q5S007); design: Identified kinases with CZC31326 from HL60 lysate; endogenous in cells; host or cells: HL60
Chain of LRRK2 (Q5S007 whole entry): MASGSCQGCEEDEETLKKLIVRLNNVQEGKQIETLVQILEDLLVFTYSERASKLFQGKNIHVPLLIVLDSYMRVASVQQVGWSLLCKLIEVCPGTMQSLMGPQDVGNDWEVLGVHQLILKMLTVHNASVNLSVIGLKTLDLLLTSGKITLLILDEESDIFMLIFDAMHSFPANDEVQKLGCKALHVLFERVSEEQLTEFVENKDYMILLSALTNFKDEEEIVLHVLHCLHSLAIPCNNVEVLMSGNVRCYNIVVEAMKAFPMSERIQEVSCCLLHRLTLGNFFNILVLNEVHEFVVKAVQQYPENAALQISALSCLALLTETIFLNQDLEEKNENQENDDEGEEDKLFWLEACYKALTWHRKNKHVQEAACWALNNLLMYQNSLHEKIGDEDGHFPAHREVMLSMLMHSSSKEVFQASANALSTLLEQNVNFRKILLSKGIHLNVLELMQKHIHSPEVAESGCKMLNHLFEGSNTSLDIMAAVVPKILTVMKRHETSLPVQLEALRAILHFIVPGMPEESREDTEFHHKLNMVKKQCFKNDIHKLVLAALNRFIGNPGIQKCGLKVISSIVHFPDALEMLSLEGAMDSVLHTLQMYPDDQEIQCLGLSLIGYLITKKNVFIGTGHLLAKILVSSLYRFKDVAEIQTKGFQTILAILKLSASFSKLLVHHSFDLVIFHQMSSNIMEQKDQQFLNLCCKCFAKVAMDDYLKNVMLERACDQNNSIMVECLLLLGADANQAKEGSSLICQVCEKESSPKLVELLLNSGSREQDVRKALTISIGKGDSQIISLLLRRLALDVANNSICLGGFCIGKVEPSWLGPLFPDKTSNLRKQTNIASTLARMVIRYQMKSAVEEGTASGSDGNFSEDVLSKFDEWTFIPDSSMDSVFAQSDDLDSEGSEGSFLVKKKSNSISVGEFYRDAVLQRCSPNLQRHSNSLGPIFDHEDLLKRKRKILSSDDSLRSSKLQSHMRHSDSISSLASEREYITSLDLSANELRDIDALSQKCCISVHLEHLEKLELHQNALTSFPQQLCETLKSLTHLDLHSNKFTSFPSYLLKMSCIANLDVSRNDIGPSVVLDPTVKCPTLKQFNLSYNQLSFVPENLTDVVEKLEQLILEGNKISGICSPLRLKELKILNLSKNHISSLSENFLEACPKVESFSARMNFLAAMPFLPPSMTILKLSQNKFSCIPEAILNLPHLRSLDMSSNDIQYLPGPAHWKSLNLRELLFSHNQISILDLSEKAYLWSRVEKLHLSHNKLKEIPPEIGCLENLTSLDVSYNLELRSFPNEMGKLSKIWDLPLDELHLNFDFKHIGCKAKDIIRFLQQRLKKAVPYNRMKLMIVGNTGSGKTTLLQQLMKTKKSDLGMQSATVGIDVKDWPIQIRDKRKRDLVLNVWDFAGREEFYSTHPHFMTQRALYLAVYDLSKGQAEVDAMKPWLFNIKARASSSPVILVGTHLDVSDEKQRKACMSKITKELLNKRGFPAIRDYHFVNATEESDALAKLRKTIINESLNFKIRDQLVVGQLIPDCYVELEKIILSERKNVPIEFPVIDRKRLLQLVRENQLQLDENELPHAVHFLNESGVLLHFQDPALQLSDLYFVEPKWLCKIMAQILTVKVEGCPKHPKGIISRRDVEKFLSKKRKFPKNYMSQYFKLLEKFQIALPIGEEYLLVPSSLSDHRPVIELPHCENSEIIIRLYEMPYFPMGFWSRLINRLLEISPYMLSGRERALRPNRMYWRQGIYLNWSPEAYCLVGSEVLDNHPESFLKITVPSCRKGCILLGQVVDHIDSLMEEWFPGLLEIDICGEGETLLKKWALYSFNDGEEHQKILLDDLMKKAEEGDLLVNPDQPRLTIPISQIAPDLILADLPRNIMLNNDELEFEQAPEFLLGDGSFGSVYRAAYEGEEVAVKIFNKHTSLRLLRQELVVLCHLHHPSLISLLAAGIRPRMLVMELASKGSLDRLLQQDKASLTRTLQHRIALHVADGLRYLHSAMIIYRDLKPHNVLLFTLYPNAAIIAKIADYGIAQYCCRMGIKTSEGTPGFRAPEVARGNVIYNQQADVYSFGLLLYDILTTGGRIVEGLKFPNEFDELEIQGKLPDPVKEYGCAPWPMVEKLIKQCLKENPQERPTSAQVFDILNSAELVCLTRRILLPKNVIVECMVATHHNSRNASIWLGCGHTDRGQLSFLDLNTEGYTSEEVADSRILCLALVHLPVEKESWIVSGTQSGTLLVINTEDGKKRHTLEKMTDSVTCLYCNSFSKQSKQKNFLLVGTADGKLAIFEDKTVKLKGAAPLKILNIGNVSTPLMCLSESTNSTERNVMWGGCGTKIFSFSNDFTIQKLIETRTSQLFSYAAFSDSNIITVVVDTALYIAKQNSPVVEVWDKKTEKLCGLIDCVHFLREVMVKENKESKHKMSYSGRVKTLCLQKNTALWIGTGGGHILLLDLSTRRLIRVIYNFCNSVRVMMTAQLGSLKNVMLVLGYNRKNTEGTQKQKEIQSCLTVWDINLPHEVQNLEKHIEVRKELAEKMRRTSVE
Procedure: as §1

inhibition at 10 µM [1]: 96.3% | inhibition at 10 µM [2]: 90.9% | inhibition at 10 µM [3]: 85.2% | Competition % [4]: 95.3% | inhibition at 10 µM [5]: 71.7%
SMILES: CS(=O)(=O)Nc1ccccc1Nc1nc(Nc2cccc(OCCN)c2)ncc1Cl [CZC31326, N-(2-(2-(3-(2-aminoethoxy)phenylamino)-5-chloropyrimidin-4-ylamino)phenyl)methanesulfonamide]
